Laboratory results taken from patent US11779564B2, “Methods and compositions for treating bile acid diarrhea, diarrhea associated with small intestine resection or gallbladder removal, and short bowel syndrome” (NAPO PHARMACEUTICALS, INC., priority 2017, dated 2023).

Experiments:
[1] = test system: chronic diarrhea in patient with SBS; assay: Case report: SBS patient with chronic diarrhea (Example 1); conditions: same patient, attempted for 12 years before crofelemer
[2] = in vivo, cited from earlier work

For `COc1ccc2c3c1O[C@H]1[C@@H](O)C=C[C@H]4[C@@H](C2)N(C)CC[C@@]341` [codeine], the “effectiveness in relieving diarrhea symptoms (earlier treatments)” value (“effectiveness” below) [1] was “None of which were effective”.

For `CN1[C@@H]2CC[C@H]1C[C@@H](OC(=O)C(CO)c1ccccc1)C2` (stereo partly shown) [atropine], the “effectiveness” value [1] was “None of which were effective”.

For `CCOC(=O)C1(c2ccccc2)CCN(CCC(C#N)(c2ccccc2)c2ccccc2)CC1` [diphenoxylate], the “effectiveness” value [1] was “None of which were effective”.

For crofelemer, the systemic bioavailability ([2]; human) is listed as “virtually no systemic bioavailability”, the “absorption from the GI tract” value [2] is listed as “little or no absorption” and the tolerability [2] is listed as “well tolerated”.

For `CN(C)C(=O)C(CCN1CCC(O)(c2ccc(Cl)cc2)CC1)(c1ccccc1)c1ccccc1` [loperamide], the “effectiveness” value [1] was “None of which were effective”.
